Assay results: US4814340A, “1,4-diaryl alkane derivatives having insecticidal and acaricidal activity” (priority 1982, dated 1989)
Read-outs that look alike come from different tables or passages of the source.

Legend:
[1] = tested on: common cutworm (third-instar larvae); experiment: Test 1 (Effect on Common Cutworm); assay type: in vivo; settings: Spodoptera litura
Experimental: (§1) Compounds (a) through (g) described below were tested as comparative compounds in the same manner as the compounds of the present invention. All the tests were doubly carried out. Namely, each result was expressed by an average value of two data.
The emulsifiable concentrate of the test compound, prepared according to the method described in Formulation Example 1, was diluted with water to a specified concentration. Sweet potato leaves were sufficiently immersed in the dilution. The sweet potato leaves were dried and placed in a plastic cup having a diameter of 10 cm, and 10 third-instar larvae of common cutworm were set free in each cup. 48 hours after, the numbers of killed and living larvae were counted and the mortality was calculated.

[2] = tested on: two-spotted spider mite (adults); experiment: Test 4 (Effect on Two-Spotted Spider Mite); assay type: in vivo; settings: Tetranychus urticae
Experimental: as §1
A kidney bean leaf disc (20 mm in diameter) perforated with a cork borer was placed on water-impregnated absorbent cotton, and thereon 20 adults of two-spotted spider mite were set free, and the resulting set was allowed to stand around the clock. The same dilution of the emulsifiable concentrate of a test compound having a concentration of 200 ppm as used in Test 1 and Test 2, was applied by an applicator having a diameter of 20 cm and a height of 60 cm in an amount of 3 ml. 24 hours after, the number of killed adults was counted.

[3] = tested on: green rice leafhopper (female adults); experiment: Test 2 (Effect on Green Rice Leafhopper); assay type: in vivo; settings: Nephotettix cincticeps
Experimental: as §1
Four or five seedlings of paddy rice with three leaves were bundled, and thereon the same dilution of the emulsifiable concentrate as used in Test 1 was sprayed in an amount of 3 ml. The bundle was dried and covered with a metal net cylinder, and 10 female adults of green rice leafhopper were set free in the cylinder. 48 hours after, the number of killed adults was counted.

[4] = tested on: German cockroach (female adults); experiment: Test 3 (Effect on German Cockroach); assay type: in vivo, Blatella germanica (German cockroach); settings: Blattella germanica
Experimental: as §1
One ml of an acetone solution of a test compound of a specified concentration was poured in a high Petri dish having a diameter of 9 cm and a height of 9 cm. The Petri dish was allowed to stand, and thereby the acetone was evaporated. The upper part of the inner wall of the Petri dish was treated with butter to prevent the adults of German cockroach from escaping from the Petri dish. 10 female adults of German cockroach were set free in each Petri dish. 48 hours after, the number of killed adults was counted.

yearling carps = experiment: Test 5 (Fish Toxicity); assay type: in vivo, carp
Experimental: as §1
A water tank having a width of 60 cm, a length of 30 cm and a height of 40 cm was filled with water, and 10 yearling carps having a body length of about 5 cm were set free in the tank and adapted to the environment in the tank. An acetone solution of a test compound was applied into water so as to become a concentration of 1 or 0.1 ppm in water by adding said acetone solution at a rate of one part by volume per 100 parts by volume of water. 48 hours after, the number of killed and living carps was counted and the effect of a test compound on carps was examined.

[5] = 1 mg/m^2, 48 hours, female adults, read-out: Mortality (%)
[6] = 5 mg/m^2, 48 hours, female adults, read-out: Mortality (%)
[7] = 20 ppm, 48 hours, third-instar larvae, read-out: Mortality (%)
[8] = 100 ppm, 48 hours, third-instar larvae, read-out: Mortality (%)
[9] = 20 ppm, 48 hours, female adults, read-out: Mortality (%)
[10] = 100 ppm, 48 hours, female adults, read-out: Mortality (%)
[11] = 200 ppm, 24 hours, adults, read-out: Mortality (%)

| SMILES | mortality at 1 mg/m2 [4, 5] [%] | mortality at 5 mg/m2 [4, 6] [%] | mortality at 20 ppm [1, 7] [%] | mortality at 100 ppm [1, 8] [%] | mortality at 20 ppm [3, 9] [%] | mortality at 100 ppm [3, 10] [%] | mortality at 200 ppm [2, 11] [%] | also measured |
| --- | --- | --- | --- | --- | --- | --- | --- | --- |
| COP(=O)(OC)OC=C(Cl)Cl [(a), 0,0-dimethyl-0-(2,2-dichlorovinyl)phosphate, reference compound] | – | – | – | – | – | – | – | mortality at 20 ppm ([1]; 48 h): 0%; mortality at 100 ppm ([1]; 48 h): 60%; mortality at 200 ppm ([2]; 24 h): 33% |
| CCOP(=S)(OCC)Oc1ccc(=O)n(-c2ccccc2)n1 [(b), 0,0-diethyl-0-(3-oxo-2-phenyl-2H-pyridazin-6-yl)-phosphorothioate, reference compound] | 0 | 10 | – | – | – | – | – | mortality at 20 ppm ([3]; 48 h): 90%; mortality at 100 ppm ([3]; 48 h): 100% |
| CCOP(=S)(OCC)Oc1cc(C)nc(C(C)C)n1 [(c), Diazinon, reference compound] | – | – | – | – | – | – | – | mortality at 20 ppm ([3]; 48 h): 10%; mortality at 100 ppm ([3]; 48 h): 80%; mortality at 1 mg/m2 ([4]; 48 h): 0%; mortality at 5 mg/m2 ([4]; 48 h): 80% |
| OC(c1ccc(Cl)cc1)(c1ccc(Cl)cc1)C(Cl)(Cl)Cl [(e), Kelthane, reference compound] | – | – | – | – | – | – | – | mortality at 200 ppm ([2]; 24 h): 100% |
| Cc1ccc(C(C)(C)CCCc2cccc(Oc3ccccc3)c2)cc1 [Compound 1, 1-(3-phenoxyphenyl)-4-(4-methylphenyl)-4-methylpentane] | 80 | 100 | 100 | 100 | – | – | – | Mortality(%) 48 Hours After (yearling carps; 0.1 ppm in water): 0%; Mortality(%) 48 Hours After (yearling carps; 1 ppm in water): 0% |
| CC(C)(CCCc1cccc(Oc2ccccc2)c1)c1ccc2c(c1)OCO2 [Compound 4, 1-(3-phenoxyphenyl)-4-(3,4-methylenedioxyphenyl)-4-methylpentane] | 40 | 100 | 100 | 100 | – | – | – | Mortality(%) 48 Hours After (yearling carps; 0.1 ppm in water): 0%; Mortality(%) 48 Hours After (yearling carps; 1 ppm in water): 0% |
| COc1ccc(C(C)(C)CCCc2ccc(F)c(Oc3ccccc3)c2)cc1 [Compound 6, 1-(3-phenoxy-4-fluorophenyl)-4-(4-methoxyphenyl)-4-methylpentane] | 100 | 100 | 100 | 100 | 100 | 100 | – | Mortality(%) 48 Hours After (yearling carps; 0.1 ppm in water): 0%; Mortality(%) 48 Hours After (yearling carps; 1 ppm in water): 0% |
| CC(C)Oc1ccc(C(C)(C)CCCc2cccc(Oc3ccccc3)c2)cc1 [Compound 9, 1-(3-phenoxyphenyl)-4-(4-isopropoxyphenyl)-4-methylpentane] | – | – | 100 | 100 | 100 | 100 | 100 | – |
| CC(C)(CCCc1ccc(F)c(Oc2ccccc2)c1)c1ccc(OC(F)F)cc1 [Compound 10, 1-(3-phenoxy-4-fluorophenyl)-4-(4-difluoromethoxyphenyl)-4-methylpentane] | 100 | 100 | 100 | 100 | 100 | 100 | – | Mortality(%) 48 Hours After (yearling carps; 0.1 ppm in water): 5%; Mortality(%) 48 Hours After (yearling carps; 1 ppm in water): 30% |
| CCOc1ccc(C(C)(C)CCCc2cccc(Oc3ccccc3)n2)cc1 [Compound 19] | – | – | 70 | 100 | – | – | 43 | – |
| CC(C)(CCCc1ccc(F)c(Oc2ccccc2)c1)c1ccc(Cl)cc1 [Compound 20] | 100 | 100 | 100 | 100 | 100 | 100 | 100 | Mortality(%) 48 Hours After (yearling carps; 0.1 ppm in water): 0%; Mortality(%) 48 Hours After (yearling carps; 1 ppm in water): 0% |
| CC(C)(CCCc1ccc(F)c(Oc2ccccc2)c1)c1ccccc1 [Compound 27] | – | – | 100 | 100 | 100 | 100 | – | mortality at 1 mg/m2 ([4]; 48 h): 100%; mortality at 5 mg/m2 ([4]; 48 h): 100% |
| Cc1ccc(C(C)(C)CCCc2ccc(F)c(Oc3ccccc3)c2)cc1 [Compound 29] | 100 | 100 | 100 | 100 | – | – | – | – |
| CCOc1ccc(C2(CCCc3cccc(Oc4ccccc4)c3)CCC2)cc1 [Compound 31, 1-(3-Phenoxyphenyl)-3-[1-(4-ethoxyphenyl)cyclobutyl]propane] | 100 | 100 | – | – | 100 | 100 | – | – |
| CC(C)(CCCc1cccc(Oc2ccccc2)c1)c1ccc(OC(F)(F)CCl)cc1 [Compound 35] | – | – | 100 | 100 | – | – | 85 | Mortality(%) 48 Hours After (yearling carps; 0.1 ppm in water): 0%; Mortality(%) 48 Hours After (yearling carps; 1 ppm in water): 0%; mortality at 1 mg/m2 ([4]; 48 h): 70%; mortality at 5 mg/m2 ([4]; 48 h): 100% |
| CCOc1ccc(C(C)(C)CCCc2cccc(Oc3ccc(F)cc3)n2)cc1 [Compound 40] | – | – | – | – | 60 | 100 | 70 | – |
| CC(C)(CCCc1cccc(Oc2ccccn2)c1)c1ccc(Cl)cc1 [Compound 43] | – | – | – | – | 75 | 100 | 60 | – |
| CC(C)(C)c1ccc(C(C)(C)CCCc2ccc(F)c(Oc3ccccc3)c2)cc1 [Compound 44] | – | – | 40 | 90 | – | – | 85 | – |
| CCc1ccc(C(C)(C)CCCc2ccc(F)c(Oc3ccccc3)c2)cc1 [Compound 52] | 70 | 100 | 100 | 100 | 100 | 100 | 100 | – |
| CC(C)(CCCc1ccc(F)c(Oc2ccc(F)cc2)c1)c1ccc(Cl)cc1 [Compound 53] | 80 | 100 | – | – | 100 | 100 | 100 | – |
| CC(C)(CCC(C#N)c1cccc(Oc2ccccc2)c1)c1ccc(Cl)cc1 (stereo not drawn) [Compound 54, 1-(3-Phenoxyphenyl)-1-cyano-4-(4-chlorophenyl)-4-methylpentane] | – | – | 45 | 90 | 50 | 90 | 100 | – |
| CCOc1ccc(C(C)(C)CCCc2ccc(F)c(Oc3ccc(F)cc3)c2)cc1 [Compound 55] | – | – | 100 | 100 | 100 | 100 | – | Mortality(%) 48 Hours After (yearling carps; 0.1 ppm in water): 0%; Mortality(%) 48 Hours After (yearling carps; 1 ppm in water): 0%; mortality at 1 mg/m2 ([4]; 48 h): 100%; mortality at 5 mg/m2 ([4]; 48 h): 100% |
| CC(C)c1ccc(C(C)(C)CCCc2ccc(F)c(Oc3ccccc3)c2)cc1 [Compound 56] | 40 | 100 | – | – | 100 | 100 | 100 | – |
| CC(C)(CCCc1cccc(Oc2ccccc2)c1)c1ccc(OCCF)cc1 [Compound 60] | – | – | 90 | 100 | 100 | 100 | 90 | – |
| COCc1ccc(C(C)(C)CCCc2cccc(Oc3ccccc3)c2)cc1 [Compound 61] | – | – | – | – | 100 | 100 | 93 | – |
| CCOC(=O)c1ccc(C(C)(C)CCCc2cccc(Oc3ccccc3)c2)cc1 [Compound 64] | – | – | 40 | 90 | – | – | 70 | – |
| CC(C)(CCCc1cccc(Oc2ccccc2)c1)c1ccc(OC(F)(F)C(F)F)cc1 [Compound 65] | 30 | 95 | 100 | 100 | 100 | 100 | – | – |
| CC(C)(CCCc1ccc(F)c(Oc2ccccc2)c1)c1ccc(OC(F)(F)C(F)F)cc1 [Compound 66] | 65 | 100 | 100 | 100 | 100 | 100 | 100 | – |
